Data published in patent US20130274174A1, “THERAPEUTIC COMBINATION OF DAPTOMYCIN AND PROTEIN SYNTHESIS INHIBITOR ANTIBIOTIC, AND METHODS OF USE” (priority 2011, published 2013).

Legend:
Assay in all cases: FIC checkerboard broth microdilution
Type in all cases: cell-based
[1] = tested on: Streptococcus pneumoniae 880; conditions: agent alone
Description: (§1) Test articles of stock solutions of daptomycin (Cubist, lot MCB2007) and TR-700 were prepared at 40 times the final target concentration in DMSO:water (1:1). DMSO was added first, the solutions were allowed to stand for 60 minutes and then the water was added. TR-700 formed a precipitate above 1280 μg/ml; therefore, this was the highest concentration used. […] The final DMSO concentration was 2.5%. The final drug concentrations in the FIC assay plates were set to bracket the MIC value of each test article for each test organism, unless the strain was totally resistant to the test article.
(§2) The test organisms were originally received from clinical sources, or from the American Type Culture Collection. Upon receipt in our laboratory, the isolates were streaked onto the appropriate growth medium: Tryptic Soy Agar II (Becton Dickinson, Sparks, Md.) supplemented with 5% defibrinated sheep blood for streptococci, and unsupplemented Tryptic Soy Agar II for all other organisms. Colonies were harvested from these plates and a cell suspension was prepared in Tryptic Soy Broth (Becton Dickinson) containing cryoprotectant. Aliquots were then frozen at −80° C. On the day prior to assay, the frozen seeds of the organisms to be tested in that session were thawed and streaked for isolation onto the appropriate agar medium plates and incubated overnight at 35° C. The test organisms were: • Staphylococcus aureus 2053 (methicillin-resistant) • Enterococcus faecalis 795 (vancomycin-susceptible) • Streptococcus pyogenes 717 • Streptococcus pneumoniae 880 (penicillin-resistant) • Escherichia coli 102 (ATCC 25922)
(§3) Streptococci were tested in Mueller Hinton II Broth (Becton Dickinson; Lot 7024879 and 7143673) supplemented with 2% lysed horse blood (Cleveland Scientific, Bath, Ohio; Lot H10472). All other organisms were tested in Mueller Hinton II Broth. The broth was prepared at 1.05× normal weight/volume to offset the 5% volume of the drugs in the final test plates.
(§4) FIC values were determined using a broth microdilution method previously described. See, Sweeney, M T and Zurenko, G E. 2003. In vitro activities of linezolid combined with other antimicrobial agents against staphylococci, enterococci, pneumococci and selected Gram-negative organisms. Antimicrob. Agents Chemother. 47:1902-1906. Automated liquid handlers (Multidrop 384, Labsystems, Helsinki, Finland; Biomek 2000 and Multimek 96, Beckman Coulter, Fullerton Calif.) were used to conduct serial dilutions and liquid transfers.
(§5) The wells (columns 2-12) of standard 96-well microdilution plates (Falcon 3918) were filled with 150 μL of 50% DMSO using the Multidrop 384. Column 1 wells were filled with 300 μl of the 40× stock solutions. […]

[2] = tested on: Staphylococcus aureus 2053 (MRSA); conditions: agent alone
Description: as §1, §2, §3, §4, §5

[3] = tested on: Streptococcus pyogenes 717
Description: as §1, §2, §3, §4, §5

[4] = tested on: Enterococcus faecalis 795 (VSE); conditions: agent alone
Description: as §1, §2, §3, §4, §5

## Cn1nnc(-c2ccc(-c3ccc(N4C[C@H](CO)OC4=O)cc3F)cn2)n1 [TR-700, Tedizolid]
[1]
  MIC: 0.25 µg/mL
[2]
  MIC: 0.5 µg/mL
[3]
  MIC: 0.125 µg/mL
[4]
  MIC: 0.5 µg/mL
